What is called AUC is concentration integrated over time. A higher AUC goes with high exposure. Usually Cmax stands for the highest concentration seen after dosing. As a reminder, the clearance is the volume of plasma or blood freed of the substance per unit of time. Low readings indicate a low capacity for elimination, high ones a high capacity for elimination. For orientation: half-life means the time needed for the level to fall by half in the phase considered. A high value points to slow decline.

Where two headings read alike, the source gives them in different places.

Results on two compounds are retold here after patent US20250346579A1, “PYRIDAZINONE COMPOUND AND PREPARATION METHOD THEREFOR, PHARMACEUTICAL COMPOSITION THEREOF, AND APPLICATION THEREOF” (CHINA PHARMACEUTICAL UNIVERSITY, priority 2021, published 2025).

Data set [1] in a line: Pharmacokinetic study in ICR mice. The format is in vivo. As to conditions: for AUC / Cmax / clearance / half-life: male, mouse, supernatant of centrifuged blood. On the procedure: (§1) Experimental process: 12 male ICR mice were selected, 6 of the […] were orally administrated (3 of them were administered with RBN-2397, and the remaining 3 were administered with I-A-1, at a dose of 10 mg/kg), 6 of the rats were administered intravenously (3 of them were administered with RBN-2397, and the remaining 3 were administered with I-A-1, at a dose of 1 mg/kg), blood samples were collected at 0 min, 2 min, 5 min, 10 min, 20 min, 30 min, 60 min, 2 h, 4 h, 6 h, and 8 h, respectively, and then centrifuged (at 3000 rpm for 5 min), a supernatant was collected and analyzed by LC-MS-MS, and results were analyzed by using WinNonlin Software.

Data set [2] deals with CT26 cells. Kind of data set: In vivo pharmacodynamic study, CT26 subcutaneous tumors in BALB/c mice. From the text: BALB/c mice were subcutaneously inoculated with CT26 cells in the right abdominal skin to develop tumors. Four days after tumor inoculation, 24 mice having a tumor size ranging from 55-75 mm^3 (with an average tumor size of 63 mm^3) were selected and randomly divided into 4 groups based on their tumor volumes, with 6 mice in each group. Drug administration was started on the day following random grouping (the day of random grouping was identified as Day 0), a carrier (0.5% of methyl cellulose+0.2% of Tween 80), Compound RBN-2397 (500 mg/kg, once a day, intragastric administration for 14 consecutive days), Compound I-A-1 (100 mg/kg, once a day, intragastric administration for 14 consecutive days), Compound I-A-1 (50 mg/kg, twice a day, intragastric administration for 14 consecutive days) were administered respectively, and the tumor size was measured three times per week during an administration period.

The nature of data set [3]: Pharmacokinetic study in SD rats. Format: in vivo. As to conditions: for AUC / Cmax / clearance / half-life: male, rat, supernatant of centrifuged blood. Here is the method: as §1, with “SD rats” for “ICR mice”
Data set [4] deals with T1, PARP7 (Homo sapiens, UniProt Q7Z3E1).
T1 construct: purchased BPS Bioscience
T1 sequence (Q7Z3E1 1-657): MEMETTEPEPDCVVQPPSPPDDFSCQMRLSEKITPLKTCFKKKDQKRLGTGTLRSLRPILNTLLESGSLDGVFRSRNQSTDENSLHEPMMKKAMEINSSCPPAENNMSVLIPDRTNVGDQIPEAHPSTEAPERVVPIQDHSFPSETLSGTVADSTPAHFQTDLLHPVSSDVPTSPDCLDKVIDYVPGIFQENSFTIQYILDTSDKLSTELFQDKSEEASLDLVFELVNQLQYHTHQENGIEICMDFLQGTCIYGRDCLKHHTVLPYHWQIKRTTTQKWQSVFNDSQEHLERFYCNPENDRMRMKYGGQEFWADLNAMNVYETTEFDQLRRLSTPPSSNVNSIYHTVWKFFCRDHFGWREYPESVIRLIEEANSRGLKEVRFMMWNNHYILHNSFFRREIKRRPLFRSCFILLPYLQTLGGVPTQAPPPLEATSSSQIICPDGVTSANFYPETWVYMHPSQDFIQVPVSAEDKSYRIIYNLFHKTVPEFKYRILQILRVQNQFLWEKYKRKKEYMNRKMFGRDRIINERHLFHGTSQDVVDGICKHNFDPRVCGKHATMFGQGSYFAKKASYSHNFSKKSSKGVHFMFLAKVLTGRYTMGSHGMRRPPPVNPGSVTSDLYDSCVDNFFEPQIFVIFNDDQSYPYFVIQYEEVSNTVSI
Kind of data set: Inhibitory activity of compounds on PARP7 enzyme (PARP7 Chemiluminescent Assay Kit). The format is biochemical. Here is the method: Experimental materials: PARP7 Chemiluminescent Assay Kit, BPS Bioscience; DMSO, China National Pharmaceutical Group, Nivo, PerkinElmer.
(1) Preparation of Solutions and Buffers:
Preparation of 10×PBS: 720 mg of KH2PO4, 45 g of NaCl and 5.311 g of Na2HPO4·12H2O were weighed respectively and dissolved in 500 mL of deionized water, a system pH value was adjusted to 7.4, sterilization was performed at 121° C. for 30 min, and the system after cooling was placed at 4° C. for later use.
Preparation of 1×PBS: 10×PBS was diluted 10 times with deionized water, that is, 9 parts of deionized water was added to 1 part of 10×PBS for dilution.
Preparation of wash buffer: 1×PBS contained 0.05% Tween-20.
Preparation of 1×PARP buffer (prepared freshly before use): 10×PARP buffer was diluted 10 times with deionized water and placed on ice for later use.
(2) Preparation of Compound Working Solution Concentration:
According to test requirements, a compound to be tested is diluted with 100% DMSO to a desired concentration, and then diluted 10 times with 1×PARP buffer to prepare a 10× compound working solution.
a. 5× histone mixture was thawed on ice one day prior to the experiment;
b. preparation of 1× histone mixture: 1× histone mixture was prepared through the 5× histone mixture by using 1×PBS; and 25 μL of 1× histone mixture was taken from each well and transferred into a test well plate and incubated overnight at 4° C.;
c. 100 μL of Blocking buffer was taken from each well and added to the test well plate and incubated for 90 min at 25° C.;
d. after the incubation was completed, the liquid in the test well plate was spin-dried, and the test well plate was washed repeatedly for 3 times;
e. 2.5 μL of the compound working solution was taken from each well and added to the test well plate according to an experimental layout diagram; and 1×PARP buffer with a corresponding volume of 10% DMSO was added to positive control wells (Positive Control), and 1×PARP buffer of a corresponding volume was added to blank control wells (Blank);
f. after the enzyme was completely dissolved, an enzyme stock solution was diluted with 1×PARP buffer to 6 ng/μL;
g. 10 μL of enzyme solution was taken from each well and added to the test well plate, the blank control wells were added with the corresponding volume of 1×PARP buffer, and in which case, the enzyme amount was 60 ng per well. Note: this step needs to be performed on ice;
h. 12.5 μL of master mixture was added to each well of the test well plate (12.5 μL master mixture included 1.25 μL of 10×PARP buffer, 1.25 μL of Opti-PARP 10× Assay mixture and 10 μL of water); the test well plate was sealed and incubated at 25° C. for 60 min;
i. after the incubation was completed, the liquid in the test well plate was spin-dried, and the test well plate was washed repeatedly for 3 times;
j. Streptavidin-HRP in a kit was diluted 50 times with a Blocking buffer, 25 μL was taken from each well and added to the test well plate, and incubated at 25° C. for 30 min;
k. after the incubation was completed, the liquid in the test well plate was spin-dried, and the test well plate was washed repeatedly for 3 times;
l. ELISA ECL Substrate A and ELISA ECL Substrate B in the kit was mixed to obtain a mixed solution according to a ratio of 1:1, 50 μL of the mixed solution was added to each well of the test well plate, Nivo was used to perform Luminescence detection immediately, and a luminous value (RLU) was read; and
m. calculation of an enzyme rate: Enzyme Activity=(RLU(Sample)−RLU(Blank))/(RLU(Pos.Ctrl)−RLU(Blank))×100%; and enzyme inhibition rate=1−% Enzyme Activity, and specific results were shown in Table 1 below.

The conditions of data set [5]: in words, background; cited from earlier work.
Data set [6] concerns NCI-H1373 cells. Conditions: NCI-H1373 xenograft; dose of >30 mg/kg orally once a day; cited from earlier work.

For `C[C@@H](CN1CC(C(=O)N2CCN(c3ncc(C(F)(F)F)cn3)CC2)C1)Nc1cn[nH]c(=O)c1C(F)(F)F` [I-A-1, (S)-4-(trifluoromethyl)-5-((1-(3-(4-(5-(trifluoromethyl)pyrimidin-2-yl)piperazine-1-carbonyl)azetidin-1-yl)propan-2-yl)amino)pyridazin-3(2H)-one], the F came to 95.80% in data set [1] (PO 10 mg/kg, 10 mg/kg) and 46.8% in data set [3] (PO 10 mg/kg). Moreover, the pharmacokinetic properties result in data set [1] (in words) and in data set [3] (in words) was “good pharmacokinetic properties” in each case. The AUC in data set [1] (IV 1 mg/kg) is 591 ng·h/mL; in data set [1] (PO 10 mg/kg), 5660 ng·h/mL; in data set [3] (IV 1 mg/kg), 548 ng·h/mL; in data set [3] (PO 10 mg/kg), 2560 ng·h/mL. For the same compound, the Cmax in data set [1] (IV 1 mg/kg) worked out at 419 ng/mL; in data set [1] (PO 10 mg/kg), 2300 ng/mL; in data set [3] (IV 1 mg/kg), 333 ng/mL; in data set [3] (PO 10 mg/kg), 564 ng/mL. Moreover, the figures for the clearance in data set [1] (IV 1 mg/kg) and in data set [3] (IV 1 mg/kg) were 29 mL/min/kg and 30.4 mL/min/kg, respectively. Moreover, the half-life in data set [1] (IV 1 mg/kg) is 1.44 h; in data set [1] (PO 10 mg/kg) it was 1.74 h; in data set [3] (IV 1 mg/kg), 1.72 h; in data set [3] (PO 10 mg/kg), 2.57 h. Further, the anti-tumor activity result in data set [2] (100 mg/kg once a day or 50 mg/kg twice a day, intragastric, 14 days, FIG. 2) is recorded as “significant anti-tumor activity”. In addition, the “anti-tumor effect compared with the positive drug RBN-2397” value in data set [2] (I-A-1 100 mg/kg/day vs RBN-2397 500 mg/kg once a day) is given as “better anti-tumor effect at a lower dose”. This compound also returned a CL in data set [3] (PO 10 mg/kg) of 62.9522 mL/min/kg. Besides, the IC50 is less than 100 nM in data set [4] (chemiluminescence, symbols defined as IC50 classes, read-out: 100 nM Inhibition Rate) and less than 100 nM in data set [4] (summary of Table 1, read-out: enzyme inhibition IC50 values).

In data set [1] (PO 10 mg/kg), `C[C@@H](COCCC(=O)N1CCN(c2ncc(C(F)(F)F)cn2)CC1)Nc1cn[nH]c(=O)c1C(F)(F)F` [RBN-2397, reference compound] gave an F of 25.67%, an AUC of 656 ng·h/mL, a Cmax of 1310 ng/mL and a half-life of 0.9 h. In data set [1] (IV 1 mg/kg), this compound showed an AUC of 256 ng·h/mL, a Cmax of 757 ng/mL, a clearance of 67 mL/min/kg and a half-life of 0.15 h. Also, in data set [5], the “drug exposure and oral bioavailability in vivo” value is reported as “low”; the “in vivo clearance rate” value was “high”. In data set [3] (PO 10 mg/kg), the CL came out at 381.342 mL/min/kg, the F came to 12.4%, the AUC is 415 ng·h/mL and the highest level (Cmax) was 295 ng/mL. The half-life in data set [3] (PO 10 mg/kg) is 0.75 h. Moreover, in data set [3] (IV 1 mg/kg), the AUC was determined as 333 ng·h/mL, the highest level (Cmax) was 836 ng/mL, the clearance is 50.6 mL/min/kg and the half-life is 0.28 h. The anti-tumor effects result in data set [6] is “significant anti-tumor effects”.
